Test results taken from patent US20150342961A1, “USE OF PROSTAGLANDIN E1 (PGE1) AND MISOPROSTOL FOR TREATING CHRONIC MYELOGENOUS/MYELOID LEUKEMIA (CML)” (priority 2014, published 2015).
Entries after “also recorded” stand apart in the source; their conditions may differ. Where a name gives a salt, the structure may show the parent alone.

How the values were obtained:
CML = assay: Screen of drugs simulating Tcf1 and Lef1 elimination, effect on CML
Excerpt: (§1) In view of the Inventor's discovery, the Inventor set out to screen for drugs that would simulate the effect of eliminating Tcf1 and Lef1 for use in treatment of CML. Inventor experimented with the following drugs which are known to at least partly simulate the effect of eliminating Tcf1 and Lef1: Carbimazole, Cinchonine, Gibberellic acid, Hippeastrine hydrobromide, Dimaprit dihydrochloride, Spaglumic acid, and Vigabatrin. […] Inventor further experimented with Trichostatin A and Vorinostat. […] Inventor thereafter turned to prostaglandins for treating CML.

CML mouse model = assay: CML mouse model, survival of primary recipients after BMT; format: in vivo; settings: for survival rate at about day 35 / time mice survived after bone marrow transplantation (BMT) before survival declined: 2.5 mg/kg daily, days 8-36 post-BMT
Method: Bone marrow cells (BM) were isolated from donor mice, and HSCs were enriched and delivered the BCR-ABL gene using retroviral transduction. The BM cells were then transplanted into another group of recipient mice (called primary recipients here). The recipients will develop CML because the donor HSCs are transformed by BCR-ABL. On day 8 after BM transplantation (BMT), the primary recipients were treated with DMSO (the solvent to dissolve PGE1 or PGE2), PGE1, PGE2, Imatinib or both PGE1 and Imatinib. The survival of the recipients was monitored.
CML was established as in FIG. 5. During days 8-36 post-bone marrow transplantation (BMT), the recipients were treated daily with 2.5 mg/kg body weight PGE1 or PGE2, or the vehicle DMSO. Statistical significance was determined by log-rank test. Data are pooled results from 2 independent experiments with a total of 10 CML recipients tested under each condition.
CML was established as in FIG. 5. During days 8-80 post-BMT, the recipients were treated daily with Imatinib alone (100 mg/kg body weight, b.i.d.) or in combination with PGE1 (2.5 mg/kg body weight). Statistical significance was determined by log-rank test. Data are pooled results from 2 independent experiments with a total of 9-10 CML recipients tested under each condition.
(§2) CML animals were treated with the solvent dimethyl sulfoxide (DMSO) as a negative control (See FIG. 6).

LSCs [1] = assay: LSCs from treated primary recipients transplanted into secondary recipients, propagation of CML; format: in vivo, mouse; settings: secondary recipients untreated
Method: The CML model was established in the primary recipients as in FIG. 5. The recipients were then treated with Imatinib, PGE1 or Misoprostol alone, or in combination during days 8-21 post-BMT. The LSCs were isolated from the BM of the primary recipients and transplanted into another set of secondary recipients. The ability of LSCs to propagate CML in the secondary recipients were tracked.
Note that the LSCs were only treated with PGE1 or Misoprostol in the primary recipients for 2 weeks, and none of the secondary recipients were treated.
as §2

LSCs [2] = assay: Screen of drugs simulating Tcf1 and Lef1 elimination, effect on LSCs
Excerpt: as §1

HSCs = system: HSCs
Excerpt: as §1

For `C=C[C@H]1C[N@@]2CC[C@H]1C[C@@H]2[C@@H](O)c1ccnc2ccccc12` [Cinchonine], the “effect on CML” value (CML) was “no effect on CML”.
`C=C1C[C@]23C[C@@]1(O)CC[C@H]2[C@@]12C=C[C@H](O)[C@@](C)(C(=O)O1)[C@H]2[C@@H]3C(=O)O` [Gibberellic acid] was tested, and the “effect on CML” value (CML) was “no effect on CML”.
`CCCCC[C@H](O)/C=C/[C@H]1[C@H](O)CC(=O)[C@@H]1CCCCCCC(=O)O` [PGE1, Prostaglandin E1] was tested, and the “survival rate at about day 35” value (CML mouse model; CML mice) was about 50%, the “time mice survived after bone marrow transplantation (BMT) before survival declined” value (CML mouse model; CML mice) was “approximately 17 days” and the “greater survival rate compared to the PGE2 mice” value (CML mouse model; CML mice, about day 35) was about 400%. The “ability of treated LSCs to propagate CML in secondary recipients” value (LSCs [1]; two-week treatment in primary recipients) was “superior to Imatinib treatment; also recorded: much less efficient in propagating CML”.
For `CN1CCC2=C[C@H](O)[C@H]3OC(=O)c4cc5c(cc4[C@H]3[C@@H]21)OCO5` [Hippeastrine hydrobromide], the “effect on CML” value (CML) was “no effect on CML”.
In the case of `CCCCC[C@H](O)/C=C/[C@H]1[C@H](O)CC(=O)[C@@H]1C/C=C\CCCC(=O)O` [PGE2, Prostaglandin E2], the “survival rate at about day 35” value (CML mouse model; CML mice) is reported as “about 10%” and the “time mice survived after bone marrow transplantation (BMT) before survival declined” value (CML mouse model; CML mice) is reported as “approximately 17 days”.
`CCOC(=O)n1ccn(C)c1=S` [Carbimazole] was tested, and the “effect on CML” value (CML) was “no effect on CML”.
For `CC(/C=C/C(=O)NO)=C\[C@@H](C)C(=O)c1ccc(N(C)C)cc1` [Trichostatin A], the “effect on LSCs” value (LSCs [2]) was “strong effect on LSCs”.
In the case of `Cc1ccc(NC(=O)c2ccc(CN3CCN(C)CC3)cc2)cc1Nc1nccc(-c2cccnc2)n1` [Imatinib], the “effect of Imatinib or co-therapy on survival of CML recipients” value (CML mouse model; Imatinib 100 mg/kg b.i.d. alone or with PGE1 2.5 mg/kg, days 8-80 post-BMT) is reported as “substantially extend the survival; also recorded: extended the survival of CML mice”, the “day after BMT at which all CML mice had died” value (CML mouse model; Imatinib 100 mg/kg b.i.d., days 8-80 post-BMT) is reported as about 62 days and the “day after secondary BMT at which secondary recipients died” value (LSCs [1]; LSCs treated in primary recipients days 8-21 post-BMT) is reported as about 40 days.
In the case of `C=CC(N)CCC(=O)O` (stereo not drawn) [Vigabatrin], the “effect on CML” value (CML) is reported as “no effect on CML”.
`CN(C)CCCSC(=N)N` [Dimaprit dihydrochloride] was tested, and the “effect on CML” value (CML) was “no effect on CML”.
In the case of `O=C(CCCCCCC(=O)Nc1ccccc1)NO` [Vorinostat], the “effect on LSCs” value (LSCs [2]) is reported as “strong effect on LSCs” and the “toxicity to HSCs” value (HSCs) is reported as “toxic to HSCs”.
